In US20100298141A1, “SUBSTITUTED PYRIDINE N-OXIDE HERBICIDES” (E. I. DU PONT DE NEMOURS AND COMPANY, priority 2007, published 2010):

How the values were obtained:
[1] = system: rice; assay: Test C flooded paddy test; format: in vivo, Oryza sativa; settings: Flood
Method in brief: (§1)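 Under a constant 3 cm flood, test compounds went directly into the paddy water. Following 13 to 15 days of greenhouse growth, treated species and controls were compared by eye.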

[2] = system: morningglory; assay: Test C pre-/postemergence test; format: in vivo, Ipomoea coccinea
Text: (§2) Seeds of plant species selected from blackgrass (Alopecurus myosuroides), downy brome (Bromus tectorum), green foxtail (Setaria viridis), Italian ryegrass (Lolium multiflorum), wheat (Triticum aestivum), wild oat (Avena fatua), catchweed bedstraw (Galium aparine), Russian thistle (Salsola kali), […] (Cynodon dactylon), Surinam grass (Brachiaria decumbens), cocklebur (Xanthium strumarium), corn (Zea mays), crabgrass (Digitaria sanguinalis), woolly cupgrass (Eriochloa villosa), giant foxtail (Setaria faberii), Goosegrass (Eleusin indica), johnsongrass (Sorghum halepense), kochia (Kochia scoparia), lambsquarters (Chenopodium album), morningglory (Ipomoea coccinea), eastern black nightshade (Solanum ptycanthum), yellow nutsedge (Cyperus esculentus), pigweed (Amaranthus retroflexus), common ragweed (Ambrosia elation), soybean (Glycine max), common (oilseed) sunflower (Helianthus annuus), and velvetleaf (Abutilon theophrasti) were planted and treated preemergence with test chemicals formulated in a non-phytotoxic solvent mixture which included a surfactant. At the same time, plants selected from these crop and weed species and also winter barley (Hordeum vulgare), canarygrass (Phalaris minor), and chickweed (Stellaria media) were treated with postemergence applications of some of the test chemicals formulated in the same manner. Plants ranged in height from 2 to 18 cm (1- to 4-leaf stage) for postemergence treatments. […] At time of treatment, test pots were flooded to 3 cm above the soil surface, treated by application of test compounds directly to the paddy water, and then maintained at that water depth for the duration of the test. […] A dash (-) response means no test result.

[3] = system: redroot pigweed; assay: Test A pre-/postemergence greenhouse test; format: in vivo, Amaranthus retroflexus; settings: for Plant response rating, Pigweed: 0 to 100 scale where 0 is no effect and 100 is complete control; for Pigweed plant response rating: 0 to 100 scale
Method in brief: (§3)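 Test compounds in non-phytotoxic solvent with surfactant were applied as a preemergence soil spray to seeded loam/sand pots and, concurrently, postemergence to plants at 2–10 cm, one- to two-leaf stage. About ten days in greenhouse, then injury visually rated against untreated controls.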

[4] = system: woolly cupgrass; assay: Test C pre-/postemergence test; format: in vivo, Eriochloa villosa
Text: as §2

[5] = system: giant foxtail; assay: Test C pre-/postemergence test; format: in vivo, Setaria faberii
Text: as §2

[6] = system: velvetleaf; assay: Test C pre-/postemergence test; format: in vivo, Abutilon theophrasti
Text: as §2

[7] = system: duck salad; assay: Test C flooded paddy test; format: in vivo, Heteranthera limosa; settings: Flood
Method in brief: as §1

[8] = system: yellow nutsedge; assay: Test C pre-/postemergence test; format: in vivo, Cyperus esculentus
Text: as §2

[9] = system: downy brome; assay: Test C pre-/postemergence test; format: in vivo, Bromus tectorum
Text: as §2

[10] = system: johnsongrass; assay: Test C pre-/postemergence test; format: in vivo, Sorghum halepense
Text: as §2

[11] = system: wheat; assay: Test A pre-/postemergence greenhouse test; format: in vivo, Triticum aestivum; settings: for Plant response rating, Wheat: 0 to 100 scale where 0 is no effect and 100 is complete control; for Wheat plant response rating: 0 to 100 scale
Method in brief: as §3

[12] = system: wild oat; assay: Test C pre-/postemergence test; format: in vivo, Avena fatua
Text: as §2

[13] = system: corn; assay: Test C pre-/postemergence test; format: in vivo, Zea mays
Text: as §2

[14] = system: wheat; assay: Test C pre-/postemergence test; format: in vivo, Triticum aestivum
Text: as §2

[15] = system: velvetleaf; assay: Test A pre-/postemergence greenhouse test; format: in vivo, Abutilon theophrasti; settings: for Plant response rating, Velvetleaf: 0 to 100 scale where 0 is no effect and 100 is complete control; for Velvetleaf plant response rating: 0 to 100 scale
Method in brief: as §3

[16] = 62 g ai/ha, scale 0 to 100 (0 no effect, 100 complete control)
[17] = 250 g ai/ha, scale 0 to 100, 0 no effect, 100 complete control, 13 to 15 days
[18] = 62 g ai/ha, Preemergence, scale 0 to 100
[19] = 125 g ai/ha, preemergence, scale 0 (no effect) to 100 (complete control)
[20] = Preemergence, 31 g ai/ha, scale 0 to 100 (0 no effect, 100 complete control)
[21] = preemergence, 250 g ai/ha, scale 0 (no effect) to 100 (complete control)
[22] = Postemergence, 500 g ai/ha, 0 is no effect, 100 is complete control
[23] = Preemergence, 125 g ai/ha, 0 no effect, 100 complete control
[24] = Postemergence, 62 g ai/ha, scale 0 to 100, 0 no effect, 100 complete control
[25] = Postemergence, 125 g ai/ha, scale 0 to 100, 0 no effect, 100 complete control
[26] = Postemergence, 250 g ai/ha, scale 0 to 100, 0 no effect, 100 complete control

CCn1nc(C(F)(F)F)c(CS(=O)(=O)c2cccc[n+]2[O-])c1OCC(F)(F)F [Compound 63]
98: Nutsedge, Yellow plant response rating [8, 21] | Bromegrass, Downy plant response rating [9, 19] | Johnsongrass plant response rating [10, 21]
80: Pigweed plant response rating [3, 22] | Velvetleaf plant response rating [6, 18] | Plant response rating, Wheat ([11]; Preemergence, 500 g ai/ha) | Velvetleaf plant response rating [15, 22]
60: Wheat plant response rating [11, 22] | Oat, Wild plant response rating [12, 18] | Wheat plant response rating [14, 19] | Plant response rating, Velvetleaf ([15]; Postemergence, 125 g ai/ha) | Velvetleaf plant response rating [15, 23]
100: Plant response rating, Pigweed ([3]; Preemergence, 500 g ai/ha) | Foxtail, Giant plant response rating [5, 18] | Foxtail, Giant plant response rating [5, 19] | Plant response rating, Foxtail, Giant [5, 20] | Foxtail, Giant plant response rating [5, 21] | Velvetleaf plant response rating [6, 21] | Bromegrass, Downy plant response rating [9, 21] | Corn plant response rating [13, 21] | Plant response rating, Velvetleaf ([15]; Preemergence, 500 g ai/ha)
70: Pigweed plant response rating [3, 23] | Bromegrass, Downy plant response rating [9, 18]
35: Plant response rating, Rice [1, 17]
20: Wheat plant response rating [11, 23] | Wheat plant response rating [14, 18]
55: Nutsedge, Yellow plant response rating [8, 19]
30: Plant response rating, Rice [1, 16]
85: Cupgrass, Woolly plant response rating [4, 18] | Cupgrass, Woolly plant response rating [4, 19] | Velvetleaf plant response rating [6, 19] | Johnsongrass plant response rating [10, 18] | Plant response rating, Johnsongrass [10, 20] | Oat, Wild plant response rating [12, 19] | Corn plant response rating [13, 18] | Wheat plant response rating [14, 21]
90: Corn plant response rating [13, 19]
0: Morningglory plant response rating [2, 18] | Morningglory plant response rating [2, 19] | Plant response rating, Morningglory [2, 20] | Morningglory plant response rating [2, 21] | Plant response rating, Cupgrass, Woolly [4, 20] | Plant response rating, Ducksalad [7, 16] | Plant response rating, Nutsedge, Yellow [8, 20] | Plant response rating, Wheat [14, 20]
40: Plant response rating, Bromegrass, Downy [9, 20]
5: Plant response rating, Corn [13, 20]
95: Oat, Wild plant response rating [12, 21]
75: Plant response rating, Ducksalad [7, 17]
50: Plant response rating, Pigweed ([3]; Postemergence, 125 g ai/ha) | Plant response rating, Velvetleaf [6, 20] | Nutsedge, Yellow plant response rating [8, 18] | Plant response rating, Wheat ([11]; Postemergence, 125 g ai/ha) | Plant response rating, Oat, Wild [12, 20]

Cn1nc(C(F)(F)F)c(C[S+]([O-])c2ccc(F)c[n+]2[O-])c1OCC(F)(F)F (centres unmarked) [Compound 67]
60: Plant response rating, Rice [1, 16] | Plant response rating, Morningglory [2, 20] | Nutsedge, Yellow plant response rating [8, 21] | Plant response rating, Bromegrass, Downy [9, 26] | Plant response rating, Wheat ([11]; Postemergence, 125 g ai/ha) | Wheat plant response rating [11, 23] | Plant response rating, Oat, Wild [12, 26] | Plant response rating, Velvetleaf ([15]; Postemergence, 125 g ai/ha)
35: Plant response rating, Velvetleaf [6, 26]
20: Plant response rating, Oat, Wild [12, 24]
25: Plant response rating (0 to 100), Wheat ([14]; Postemergence, 31 g ai/ha)
100: Morningglory plant response rating [2, 19] | Morningglory plant response rating [2, 21] | Pigweed plant response rating [3, 22] | Pigweed plant response rating [3, 23] | Plant response rating, Pigweed ([3]; Preemergence, 500 g ai/ha) | Cupgrass, Woolly plant response rating [4, 21] | Foxtail, Giant plant response rating [5, 18] | Foxtail, Giant plant response rating [5, 19] | Foxtail, Giant plant response rating [5, 21] | Velvetleaf plant response rating [6, 19] | Velvetleaf plant response rating [6, 21] | Plant response rating, Ducksalad [7, 16] | Bromegrass, Downy plant response rating [9, 18] | Bromegrass, Downy plant response rating [9, 19] | Plant response rating, Bromegrass, Downy [9, 20] | Bromegrass, Downy plant response rating [9, 21] | Plant response rating, Wheat ([11]; Preemergence, 500 g ai/ha) | Oat, Wild plant response rating [12, 21] | Corn plant response rating [13, 21] | Wheat plant response rating [14, 19] | Wheat plant response rating [14, 21] | Plant response rating, Velvetleaf ([15]; Preemergence, 500 g ai/ha)
65: Plant response rating, Johnsongrass [10, 20]
90: Velvetleaf plant response rating [15, 22] | Velvetleaf plant response rating [15, 23]
30: Plant response rating, Cupgrass, Woolly [4, 25] | Plant response rating, Velvetleaf [6, 25] | Plant response rating (0 to 100), Wheat ([14]; Postemergence, 62 g ai/ha)
75: Plant response rating, Velvetleaf [6, 20]
10: Plant response rating, Bromegrass, Downy [9, 24] | Plant response rating (0 to 100), Oat, Wild ([12]; Postemergence, 31 g ai/ha)
40: Plant response rating, Foxtail, Giant [5, 25] | Nutsedge, Yellow plant response rating [8, 18] | Nutsedge, Yellow plant response rating [8, 19] | Plant response rating, Bromegrass, Downy [9, 25] | Plant response rating, Wheat [14, 20]
0: Plant response rating (0 to 100), Morningglory ([2]; Postemergence, 31 g ai/ha) | Plant response rating, Morningglory [2, 24] | Plant response rating, Morningglory [2, 25] | Plant response rating, Morningglory [2, 26] | Plant response rating (0 to 100), Cupgrass, Woolly ([4]; Postemergence, 31 g ai/ha) | Plant response rating, Cupgrass, Woolly [4, 24] | Plant response rating (0 to 100), Foxtail, Giant ([5]; Postemergence, 31 g ai/ha) | Plant response rating, Foxtail, Giant [5, 24] | Plant response rating (0 to 100), Velvetleaf ([6]; Postemergence, 31 g ai/ha) | Plant response rating (0 to 100), Velvetleaf ([6]; Postemergence, 62 g ai/ha) | Plant response rating (0 to 100), Nutsedge, Yellow ([8]; Postemergence, 31 g ai/ha) | Plant response rating, Nutsedge, Yellow [8, 24] | Plant response rating, Nutsedge, Yellow [8, 25] | Plant response rating, Nutsedge, Yellow [8, 26] | Plant response rating, Nutsedge, Yellow [8, 20] | Plant response rating (0 to 100), Bromegrass, Downy ([9]; Postemergence, 31 g ai/ha) | Plant response rating (0 to 100), Johnsongrass ([10]; Postemergence, 31 g ai/ha) | Plant response rating, Johnsongrass [10, 24] | Plant response rating, Johnsongrass [10, 25] | Plant response rating, Johnsongrass [10, 26] | Plant response rating (0 to 100), Corn ([13]; Postemergence, 31 g ai/ha) | Plant response rating, Corn [13, 24] | Plant response rating, Corn [13, 26]
50: Plant response rating, Cupgrass, Woolly [4, 26]
70: Plant response rating, Cupgrass, Woolly [4, 20] | Plant response rating, Foxtail, Giant [5, 26] | Johnsongrass plant response rating [10, 18] | Wheat plant response rating [11, 22] | Plant response rating, Wheat [14, 25]
95: Morningglory plant response rating [2, 18] | Corn plant response rating [13, 18] | Corn plant response rating [13, 19]
80: Plant response rating, Pigweed ([3]; Postemergence, 125 g ai/ha) | Cupgrass, Woolly plant response rating [4, 18] | Plant response rating, Foxtail, Giant [5, 20] | Johnsongrass plant response rating [10, 19] | Oat, Wild plant response rating [12, 18] | Plant response rating, Oat, Wild [12, 20]
45: Plant response rating, Corn [13, 20]
98: Cupgrass, Woolly plant response rating [4, 19] | Oat, Wild plant response rating [12, 19] | Wheat plant response rating [14, 18]
85: Velvetleaf plant response rating [6, 18] | Johnsongrass plant response rating [10, 21] | Plant response rating, Wheat [14, 26]
